Experimental data published in PubChem BioAssay AID1963835 (Molecular Pharmacology Branch, DTP, NCI, 2024).
pIC50: −log10 of the molar value.

System: 699152-130-R-J1-PDC complex spheroid viability
Test: Anticancer human tumor 699152-130-R-J1-PDC patient-derived pancreatic carcinoma cell line growth inhibition [POLQ]
Settings: for pIC50: curve of first compound; for viability, T/C: stronger effect = lower value
Outline: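 Complex spheroid viability model combining PDC tumour cells with endothelial (HUVEC) and MSC stromal cells. Novobiocin, ART-558 or RP6685 were tested singly and in combination with standard and investigational anticancer drugs. Each was titrated in half-log steps from near clinical Cmax, or from 10 microM where Cmax was unknown.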
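Further: spheroids exposed to agents for 7 days before viability reading.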
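Wherever viability, T/C is given: percent of DMSO vehicle control viability so 100% = vehicle and 0% = no viable signal.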

Work on `CC1COCCN1c1cc(C2(O)CC3CCC(C2)O3)c2cnn(-c3ccn[nH]3)c2n1` (centres undefined) + Cc1cccc(N(C)C(=O)C2C(O)CCN2c2nc(C)cc(C(F)(F)F)c2C#N)c1 yielded a pIC50 (second compound 0.0316 µM) of 5.70, a pIC50 (second compound 0.1 µM) of 5.92 and a pIC50 (second compound 0.316 µM) of 5.98. For the same compound, the pIC50 (second compound 1 µM) was 5.77, the pIC50 (second compound 3.16 µM) was 5.76 and the pIC50 (second compound 10 µM) was 5.71. The viability, T/C (second compound 0.0316 µM, first compound 0.0316 µM) was 92.1%, the viability, T/C (second compound 0.0316 µM, first compound 0.1 µM) was 83.9% and the viability, T/C (second compound 0.0316 µM, first compound 0.316 µM) was 64.9%. The viability, T/C (second compound 0.0316 µM, first compound 1 µM) was 60.6%, the viability, T/C (second compound 0.0316 µM, first compound 3.16 µM) was 44.5% and the viability, T/C (second compound 0.0316 µM, first compound 10 µM) was 33.1%. It also gave a viability, T/C (second compound 0.1 µM, first compound 0.0316 µM) of 94.6%, a viability, T/C (second compound 0.1 µM, first compound 0.1 µM) of 78.7% and a viability, T/C (second compound 0.1 µM, first compound 0.316 µM) of 60.9%. It also gave a viability, T/C (second compound 0.1 µM, first compound 1 µM) of 52.2%, a viability, T/C (second compound 0.1 µM, first compound 3.16 µM) of 44% and a viability, T/C (second compound 0.1 µM, first compound 10 µM) of 38.6%. It also gave a viability, T/C (second compound 0.316 µM, first compound 0.0316 µM) of 93%, a viability, T/C (second compound 0.316 µM, first compound 0.1 µM) of 94% and a viability, T/C (second compound 0.316 µM, first compound 0.316 µM) of 64.6%. It also gave a viability, T/C (second compound 0.316 µM, first compound 1 µM) of 54.3%, a viability, T/C (second compound 0.316 µM, first compound 3.16 µM) of 47.4% and a viability, T/C (second compound 0.316 µM, first compound 10 µM) of 39.7%. For the same compound, the viability, T/C (second compound 1 µM, first compound 0.0316 µM) was 96.3%, the viability, T/C (second compound 1 µM, first compound 0.1 µM) was 83.1% and the viability, T/C (second compound 1 µM, first compound 0.316 µM) was 66.4%. It also gave a viability, T/C (second compound 1 µM, first compound 1 µM) of 52.8%, a viability, T/C (second compound 1 µM, first compound 3.16 µM) of 47.5% and a viability, T/C (second compound 1 µM, first compound 10 µM) of 37.8%. For the same compound, the viability, T/C (second compound 3.16 µM, first compound 0.0316 µM) was 98.2%, the viability, T/C (second compound 3.16 µM, first compound 0.1 µM) was 87.2% and the viability, T/C (second compound 3.16 µM, first compound 0.316 µM) was 62.3%. The viability, T/C (second compound 3.16 µM, first compound 1 µM) was 58.8%, the viability, T/C (second compound 3.16 µM, first compound 3.16 µM) was 45% and the viability, T/C (second compound 3.16 µM, first compound 10 µM) was 33.6%. The viability, T/C (second compound 10 µM, first compound 0.0316 µM) was 84.6%, the viability, T/C (second compound 10 µM, first compound 0.1 µM) was 81.8% and the viability, T/C (second compound 10 µM, first compound 0.316 µM) was 69.7%. For the same compound, the viability, T/C (second compound 10 µM, first compound 1 µM) was 57.3%, the viability, T/C (second compound 10 µM, first compound 3.16 µM) was 44.9% and the viability, T/C (second compound 10 µM, first compound 10 µM) was 39.1%.

For `CC(=O)O[C@H]1C(=O)[C@@]2(C)[C@H]([C@H](OC(=O)c3ccccc3)[C@]3(O)C[C@H](OC(=O)[C@H](O)[C@@H](NC(=O)c4ccccc4)c4ccccc4)C(C)=C1C3(C)C)[C@]1(OC(C)=O)CO[C@@H]1C[C@@H]2O` + Nc1ccc(C#CCN(C(=O)Cc2ncc(C(F)(F)F)cc2C(F)(F)F)c2ccc(F)cc2)nn1, the pIC50 (second compound 0.0316 µM) was < 5.52, the pIC50 (second compound 0.1 µM) was < 5.52 and the pIC50 (second compound 0.316 µM) was < 5.52. The pIC50 (second compound 1 µM) was < 5.52, the pIC50 (second compound 3.16 µM) was < 5.52 and the pIC50 (second compound 10 µM) was < 5.52. For the same compound, the viability, T/C (second compound 0.0316 µM, first compound 0.00949 µM) was 82%, the viability, T/C (second compound 0.0316 µM, first compound 0.03 µM) was 66.1% and the viability, T/C (second compound 0.0316 µM, first compound 0.0949 µM) was 62.1%. For the same compound, the viability, T/C (second compound 0.0316 µM, first compound 0.3 µM) was 67.1%, the viability, T/C (second compound 0.0316 µM, first compound 0.949 µM) was 72.8% and the viability, T/C (second compound 0.0316 µM, first compound 3 µM) was 75.6%. For the same compound, the viability, T/C (second compound 0.1 µM, first compound 0.00949 µM) was 79.8%, the viability, T/C (second compound 0.1 µM, first compound 0.03 µM) was 69% and the viability, T/C (second compound 0.1 µM, first compound 0.0949 µM) was 61.4%. The viability, T/C (second compound 0.1 µM, first compound 0.3 µM) was 63.2%, the viability, T/C (second compound 0.1 µM, first compound 0.949 µM) was 68.8% and the viability, T/C (second compound 0.1 µM, first compound 3 µM) was 70.5%. It also gave a viability, T/C (second compound 0.316 µM, first compound 0.00949 µM) of 85.3%, a viability, T/C (second compound 0.316 µM, first compound 0.03 µM) of 69.2% and a viability, T/C (second compound 0.316 µM, first compound 0.0949 µM) of 65.5%. The viability, T/C (second compound 0.316 µM, first compound 0.3 µM) was 68%, the viability, T/C (second compound 0.316 µM, first compound 0.949 µM) was 64.8% and the viability, T/C (second compound 0.316 µM, first compound 3 µM) was 72.8%. For the same compound, the viability, T/C (second compound 1 µM, first compound 0.00949 µM) was 83%, the viability, T/C (second compound 1 µM, first compound 0.03 µM) was 72.2% and the viability, T/C (second compound 1 µM, first compound 0.0949 µM) was 65.5%. The viability, T/C (second compound 1 µM, first compound 0.3 µM) was 65.4%, the viability, T/C (second compound 1 µM, first compound 0.949 µM) was 71.6% and the viability, T/C (second compound 1 µM, first compound 3 µM) was 67.7%. For the same compound, the viability, T/C (second compound 3.16 µM, first compound 0.00949 µM) was 80.9%, the viability, T/C (second compound 3.16 µM, first compound 0.03 µM) was 68% and the viability, T/C (second compound 3.16 µM, first compound 0.0949 µM) was 65.4%. It also gave a viability, T/C (second compound 3.16 µM, first compound 0.3 µM) of 69.9%, a viability, T/C (second compound 3.16 µM, first compound 0.949 µM) of 84.2% and a viability, T/C (second compound 3.16 µM, first compound 3 µM) of 76.9%. It also gave a viability, T/C (second compound 10 µM, first compound 0.00949 µM) of 97%, a viability, T/C (second compound 10 µM, first compound 0.03 µM) of 70.5% and a viability, T/C (second compound 10 µM, first compound 0.0949 µM) of 72.3%. It also gave a viability, T/C (second compound 10 µM, first compound 0.3 µM) of 71.9%, a viability, T/C (second compound 10 µM, first compound 0.949 µM) of 86.7% and a viability, T/C (second compound 10 µM, first compound 3 µM) of 78.5%.
